Data: US20150328109A1, “DERMAL COMPOSITIONS CONTAINING UNNATURAL HYGROSCOPIC AMINO ACIDS” (MEDPHARM LIMITED, priority 2012, published 2015)

What was measured:
[1] = Snake study: water uptake into snake skin after treatment with amino acid solution; design: species or system Elaphe guttata, the American corn snake; conditions: 24 h treatment with 1.33M amino acid solution, dried, then 40% RH
Protocol: • All experiments were performed in triplicate (i.e. three separate solutions, three pieces of skin, one per solution). […] Each piece was weighed and placed directly into one the of the amino acid solutions, one piece of snake skin per solution. • After 1 hour, the snake skin was removed from the solution and blotted dry on filter paper. The weight of the snake skin was recorded before the same snake skin was returned to the amino acid solution. • After an additional 23 hours (24 hours in total), the snake skin was again blotted dry on filter paper and weighed. • The snake skin, now having absorbed the test amino acid, was then placed in a vacuum desiccator over silica (0% RH) for 48 hours before being weighed.
• A 10% w/w concentration solution of each compound is made by stirring the compound (100 mg) in water (1 mL). Three separate solutions of each compound are made separately so that the experiment can be carried out in triplicate simultaneously. […] The weight of the snake skin is recorded before the same snake skin is returned to the same compound solution. • After an additional 23 hours (24 hours in total), the snake skin is again blotted dry on filter paper and weighed. • The snake skin is then placed in a vacuum desiccator over silica (0% relative humidity (RH)) for 48 hours before being weighed. […]

RHE tissues = experiment: RHE irritation assessment Method 1: SkinEthic Skin Irritation Test-42 bis assay (MTT), plus 24 h contact time; format: cell-based, human; conditions: 42 min and 24 h exposure; 5 and 1% w/v α-H-G, 10 and 1% w/v L-h-S in water
Excerpt: The purpose of this experiment was to investigate the potential of alpha-hydroxyglycine (α-H-G) and L-homoserine (L-h-S) to cause skin irritation. The method was based on the validated SOP for the “The SkinEthic Skin Irritation Test-42 bis assay” in accordance to OECD guideline Test No. 439: In Vitro Skin Irritation. The protocol is provided in Section 1.2. Further details on the method can be found in the SkinEthic™ RHE SOP, Version 2.1 (July 2009), SkinEthic skin irritation test-42 bis test method for the prediction of acute skin irritation of chemicals: 42 minutes application+42 hours post-incubation. Available at: [http://ecvam.jrc.ec.europa.eu].
In addition, a further experiment was performed where the contact time of the test solution with the tissue was increased to 24 h. Following which point an MTT assay was used to determine the tissue viability and the test solutions potential to cause irritation.
The following steps were completed on receipt of the tissues: • (i) Wells of 6-well plates were filled with 1 mL growth culture medium. • (ii) Tissue were removed from their packaging, cleaned to remove the transport agarose and inspected for signs of damage; damaged tissues were discarded. • (iii) The tissue were transferred into the growth culture medium then incubated at 37° C., 5% CO2 until application of the test solution.
1.2.1.1.6 Applications of 5 and 1% w/v α-H-G and 10 and 1% w/v L-h-S and Controls • (i) 16 μL±0.5 μL of the test solutions (5% w/v α-hydroxyglycine (α-H-G) in water, 1% w/v α-hydroxyglycine (α-H-G) in water, 10% w/v L-homoserine (L-h-S) in water, 1% w/v L-homoserine (L-h-S) in water) and negative (PBS) and positive (5% SDS) controls were dispensed onto the top of the epidermal tissue, using positive displacement pipette. […]

N[C@@H](CCO)C(=O)O [L-homoserine]
average percentage weight increase after 24 h at 40% RH [1]: particularly advantageous properties | skin irritation potential (viability below 50% of negative control = irritant) (RHE tissues): non-irritants
